Test results as given in patent publication US20180071317A1, “USE OF AGENTS THAT ALTER THE PERITUMORAL ENVIRONMENT FOR THE TREATMENT OF CANCER” (SERVICIO ANDALUZ DE SALUD, priority 2011, published 2018).

Legend:
[1] = tested on: fibroblasts (PHF) co-cultured with human choriocarcinoma tumor cells (AC-1M32); assay: Marker expression (IHC) in PHF co-cultured with AC-1M32 tumor cells; assay type: cell-based; settings: co-culture with AC-1M32; SP 1 μM; 48 h;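 also: Read-out is the percentage of PHF fibroblasts positive for each marker, with cells grown in fresh healthy-donor blood plasma, six replicates, reference being fibroblasts cultured alone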
Procedure: (§1) All cultures were maintained 48 hours, following which the same cells were included in paraffin blocks for subsequent analysis of the expression of different markers by immunohistochemistry (see Example 1). […] All experiments were carried out sixfold. Analyzed markers in fibroblast cells (stromal cells) were: TGF-α, TGF-β1, TGF-β2, TGF-β3, SPARC, MMP-3, MMP-7, MMP-9, MMP-11, MMP-13 and MMP-14.

[2] = tested on: fibroblasts (PHF) co-cultured with human glioma tumor cells (GAMG); assay: Marker expression (IHC) in PHF co-cultured with GAMG tumor cells; assay type: cell-based; settings: co-culture with GAMG; SP 1 μM; 48 h;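 also: percentage of PHF fibroblasts positive for each marker, cultured in fresh plasma from a healthy donor, six replicates, with fibroblasts cultured alone as reference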
Procedure: as §1

[3] = tested on: leukocyte cells (mono and polymorphonuclear) in co-culture with cells isolated from primary human tumors; assay: Marker expression (IHC) in leukocytes co-cultured with primary human tumor cells (colon, pancreatic, lung carcinoma, glioma, melanoma); assay type: cell-based; settings: SP 1 μM;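 also: tumor cells and leukocytes came from the same patients, co-culture contents were paraffin-embedded for immunohistochemistry with antibodies to TGF-β2 or NF-kB, leukocytes cultured alone served as control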
Procedure: To check that the interaction of the human primary tumor cells with cells of the immune/inflammatory (mono and polymorphonuclear leukocytes) cells, stimulates the secretion of substances of importance for survival and tumor progression, cultures were carried out using sets of immune cells/inflammatory (mono and polymorphonuclear leukocytes) with tumor cells obtained directly from primary human tumors of the same patients.
The same method described in Example 7 and 9 was used to obtain tumor cells from primary human tumors. Similarly cultured immune cells/inflammatory (mono and polymorphonuclear leukocytes) were used as control and secondly, cultured tumor cells isolated from patients in the presence of immune cells/inflammatory (mono and polymorphonuclear leukocytes).
Then, paraffin blocks were prepared with the contents of each of the groups mentioned previously for expression studies using immunohistochemistry. On this occasion, in order to identify the secretion of substances with importance for the survival and progression of tumor the following markers were analyzed: TGF-β2 (SAB4502956) and NF-kB (SAB4501992) using specific antibodies against them. All antibodies used were rabbit polyclonal antibodies obtained from Sigma Aldrich and were used at a concentration of 1/1000. Immunohistochemical techniques were performed and evaluated as described in previous examples.

[4] = tested on: human primary macrophages (PHM); assay: Marker expression (immunohistochemistry) in human primary macrophages with SP alone or with NK1 antagonists; assay type: cell-based; settings: SP 1 μM; 48 h
Procedure: In this sense the next step was to analyze the effect exerted by the treatment with non-peptide NK1 antagonists in human primary macrophages (PHM) obtained and purified from pleural effusion samples obtained from men with chronic age range between 45 and 55 years. Briefly, the pleural fluid from chronic (rich in macrophages) was centrifuged.
After 48 hours of culture, cells were harvested and cellular paraffin blocks were constructed for immunohistochemical analysis (see Example 1). To analyze the expression of markers EGF, MMP-9, VEGF and IL-8 antibodies were used as follows: EGF (rabbit monoclonal antibody, anti-EGF; 07-1432. Merck-Millipore), MMP-9 (polyclonal rabbit anti-MMP-9: SAB4501896, Sigma-Aldrich), VEGF (mouse monoclonal anti-VEGF, GF25-100UG, Merck-Millipore) and TNF-α (mouse monoclonal anti-TNF-α, number MAB 1021 catalogue, obtained from Merck-Millipore). All of these antibodies were used at a concentration of 1/1000. System for labelling with a secondary antibody specific for the primary antibodies obtained from rabbit or mouse was used, as was necessary in each case, both the Envision (Dako). All experiments were carried out sixfold.

[5] = tested on: fibroblasts (PHF) co-cultured with human neuroblastoma tumor cells (KELLY); assay: Marker expression (IHC) in PHF co-cultured with KELLY tumor cells; assay type: cell-based; settings: PHF co-cultured with KELLY + SP;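 also: Co-cultures grown on healthy-donor human blood plasma, run in six replicates, value is percentage of fibroblasts positive for each marker, compared with fibroblasts cultured alone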
Procedure: as §1

[6] = tested on: fibroblasts (PHF) co-cultured with tumor cells of human cervix carcinoma (KB); assay: Marker expression (IHC) in PHF co-cultured with KB tumor cells; assay type: cell-based; settings: co-culture with KB; SP 1 μM; 48 h;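 also: percentage of PHF fibroblasts showing expression of each marker, cultured in fresh blood plasma from a healthy human donor, six replicates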
Procedure: as §1

[7] = tested on: macrophages in co-culture with cells isolated from primary human tumors; assay: Marker expression (IHC) in macrophages co-cultured with primary human tumor cells (colon, breast, ovarian, lung carcinoma, melanoma); assay type: cell-based; settings: SP 1 μM;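 also: macrophages came from pleural or peritoneal washings of the patient who also supplied the tumor cells, and both were co-cultured on fresh blood plasma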
[8] = tested on: fibroblasts (PHF) co-cultured with tumor cells in human prostate carcinoma (22Rv1); assay: Marker expression (IHC) in PHF co-cultured with 22Rv1 tumor cells; assay type: cell-based; settings: co-culture with 22Rv1; SP 1 μM; 48 h;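 also: cultures grown on fresh plasma from a healthy donor, each experiment run sixfold, values give the percentage of fibroblasts positive for the given marker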
Procedure: as §1

[9] = tested on: fibroblasts (PHF) co-cultured with human melanoma tumor cells (MEL-HO1); assay: Marker expression (IHC) in PHF co-cultured with MEL-HO1 tumor cells; assay type: cell-based; settings: PHF co-cultured with MEL-HO1 + SP;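 also: values are the percentage of fibroblasts positive for each marker, with cultures grown in fresh healthy-donor blood plasma and each experiment run six times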
Procedure: as §1

[10] = tested on: fibroblasts (PHF) co-cultivated with tumor cell lymphoblastic leukemia B (SDI); assay: Marker expression (IHC) in PHF co-cultured with SDI tumor cells; assay type: cell-based, human; settings: PHF co-cultivated with SDI + SP
Procedure: as §1

[11] = tested on: fibroblasts (PHF) co-cultured with tumor cells, ovarian carcinoma (EFO-27); assay: Marker expression (IHC) in PHF co-cultured with EFO-27 tumor cells; assay type: cell-based, human; settings: co-culture with EFO-27; SP 1 μM; 48 h;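 also: values are the percentage of PHF fibroblasts positive for each marker, cultured in fresh plasma from a healthy human donor, each experiment run in six replicates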
Procedure: as §1

[12] = co-culture with cells isolated from colon carcinoma
[13] = co-culture with cells isolated from glioma
[14] = co-culture with cells isolated from lung carcinoma
[15] = co-culture with cells isolated from melanoma
[16] = co-culture with cells isolated from pancreatic carcinoma
[17] = co-culture with cells isolated from breast carcinoma
[18] = co-culture with cells isolated from ovarian carcinoma

SMILES: CSCC[C@H](NC(=O)[C@H](CC(C)C)NC(=O)CNC(=O)[C@H](Cc1ccccc1)NC(=O)[C@H](Cc1ccccc1)NC(=O)[C@H](CCC(N)=O)NC(=O)[C@H](CCC(N)=O)NC(=O)[C@@H]1CCCN1C(=O)[C@H](CCCCN)NC(=O)[C@@H]1CCCN1C(=O)[C@@H](N)CCCNC(=N)N)C(N)=O [SP]
- PHF cells expressing MMP-3 [1]: 45.4 ± 2.7%
- PHF cells expressing MMP-7 [1]: 57.1 ± 3.8%
- PHF cells expressing MMP-9 [1]: 56.3 ± 2.4%
- PHF cells expressing MMP-11 [1]: 28.4 ± 2.8%
- PHF cells expressing MMP-13 [1]: 47 ± 3.7%
- PHF cells expressing MMP-14 [1]: 51.2 ± 4.5%
- PHF cells expressing SPARC [1]: 46 ± 3.1%
- PHF cells expressing TGF-α [1]: 41.4 ± 1.1%
- PHF cells expressing TGF-β1 [1]: 36.5 ± 2.1%
- PHF cells expressing TGF-β2 [1]: 53.5 ± 3.1%
- PHF cells expressing TGF-β3 [1]: 46 ± 3%
- PHF cells expressing MMP-3 [2]: 43.4 ± 2.8%
- PHF cells expressing MMP-7 [2]: 57.1 ± 3.8%
- PHF cells expressing MMP-9 [2]: 52.3 ± 2.4%
- PHF cells expressing MMP-11 [2]: 27.5 ± 3.8%
- PHF cells expressing MMP-13 [2]: 45.4 ± 3.6%
- PHF cells expressing MMP-14 [2]: 49.3 ± 3.5%
- PHF cells expressing SPARC [2]: 51.2 ± 3.3%
- PHF cells expressing TGF-α [2]: 42.5 ± 3.1%
- PHF cells expressing TGF-β1 [2]: 33.6 ± 3.1%
- PHF cells expressing TGF-β2 [2]: 40.7 ± 2.1%
- PHF cells expressing TGF-β3 [2]: 51 ± 1.6%
- Percentage of mononuclear leukocytes cells which expressed NF-kB [3, 12]: 47.5 ± 4.6%
- Percentage of mononuclear leukocytes cells which expressed TGF-β [3, 12]: 36.5 ± 3.5%
- Percentage of polymorphonuclear leukocytes cells which expressed NF-kB [3, 12]: 36.6 ± 4.7%
- Percentage of polymorphonuclear leukocytes cells which expressed TGF-β [3, 12]: 45.8 ± 3.5%
- Percentage of mononuclear leukocytes cells expressing NF-kB [3, 13]: 41.6 ± 4.1%
- Percentage of mononuclear leukocytes cells expressing TGF-β [3, 13]: 41.7 ± 3.4%
- Percentage of polymorphonuclear leukocytes cells expressing NF-kB [3, 13]: 39.4 ± 4.2%
- Percentage of polymorphonuclear leukocytes cells expressing TGF-β [3, 13]: 39.7 ± 3.3%
- Percentage of mononuclear leukocytes cells which expressed NF-kB [3, 14]: 41.6 ± 4.2%
- Percentage of mononuclear leukocytes cells which expressed TGF-β [3, 14]: 42.7 ± 3.3%
- Percentage of polymorphonuclear leukocytes cells which expressed NF-kB [3, 14]: 35.5 ± 4.2%
- Percentage of polymorphonuclear leukocytes cells which expressed TGF-β [3, 14]: 38.7 ± 3.3%
- Percentage of mononuclear leukocytes cells which expressed NF-kB [3, 15]: 51.7 ± 5.3%
- Percentage of mononuclear leukocytes cells which expressed TGF-β [3, 15]: 49.6 ± 4.2%
- Percentage of polymorphonuclear leukocytes cells which expressed NF-kB [3, 15]: 56.6 ± 4.6%
- Percentage of polymorphonuclear leukocytes cells which expressed TGF-β [3, 15]: 54.5 ± 3.5%
- Percentage of mononuclear leukocytes cells which expressed TGF-β [3, 16]: 39.5 ± 4.5%
- Percentage of polymorphonuclear leukocytes cells which expressed NF-kB [3, 16]: 35.4 ± 4.2%
- Percentage of polymorphonuclear leukocytes cells which expressed TGF-β [3, 16]: 36.5 ± 3.1%
- macrophages expressing EGF [4]: 27.4 ± 1.1%
- macrophages expressing MMP-9 [4]: 24.3 ± 1.4%
- macrophages expressing VEGF [4]: 29.6 ± 2.1%
- cells expressing MMP-3 [5]: 45.4 ± 4.7%
- cells expressing MMP-7 [5]: 57.4 ± 3.8%
- cells expressing MMP-9 [5]: 51.2 ± 2.4%
- cells expressing MMP-11 [5]: 29.4 ± 4.8%
- cells expressing MMP-13 [5]: 44.3 ± 4.5%
- cells expressing MMP-14 [5]: 51.2 ± 4.2%
- cells expressing SPARC [5]: 46.5 ± 4.2%
- cells expressing TGF-α [5]: 42.4 ± 3.1%
- cells expressing TGF-β1 [5]: 36.5 ± 2.1%
- cells expressing TGF-β2 [5]: 42.2 ± 2.2%
- cells expressing TGF-β3 [5]: 43.4 ± 2.3%
- PHF cells expressing MMP-3 [6]: 42.6 ± 1.8%
- PHF cells expressing MMP-7 [6]: 57.5 ± 5.8%
- PHF cells expressing MMP-9 [6]: 57.3 ± 6.4%
- PHF cells expressing MMP-11 [6]: 36.4 ± 6.8%
- PHF cells expressing MMP-13 [6]: 45.4 ± 3.7%
- PHF cells expressing MMP-14 [6]: 51.6 ± 3.5%
- PHF cells expressing SPARC [6]: 46.9 ± 1.6%
- PHF cells expressing TGF-α [6]: 33.4 ± 1.1%
- PHF cells expressing TGF-β1 [6]: 34.5 ± 1.1%
- PHF cells expressing TGF-β2 [6]: 45.6 ± 1.1%
- PHF cells expressing TGF-β3 [6]: 44.5 ± 3.1%
- Percentage of macrophages which expressed EGF [7, 17]: 41.6 ± 4.2%
- Percentage of macrophages which expressed MMP-9 [7, 17]: 39.5 ± 3.2%
- Percentage of macrophages which expressed VEGF [7, 17]: 37.4 ± 4.2%
- Percentage of macrophages which expressed EGF [7, 12]: 41.4 ± 4.2%
- Percentage of macrophages which expressed MMP-9 [7, 12]: 39.5 ± 3.5%
- Percentage of macrophages which expressed VEGF [7, 12]: 38.5 ± 2.9%
- Percentage of macrophages which expressed EGF [7, 14]: 38.4 ± 2.9%
- Percentage of macrophages which expressed MMP-9 [7, 14]: 39.4 ± 3.7%
- Percentage of macrophages which expressed VEGF [7, 14]: 37.4 ± 4.2%
- Percentage of macrophages which expressed EGF [7, 15]: 41.9 ± 3.2%
- Percentage of macrophages which expressed MMP-9 [7, 15]: 39.5 ± 5.3%
- Percentage of macrophages which expressed VEGF [7, 15]: 35.4 ± 4.4%
- Percentage of macrophages which expressed EGF [7, 18]: 41.5 ± 4.2%
- Percentage of macrophages which expressed MMP-9 [7, 18]: 39.5 ± 3.2%
- Percentage of macrophages which expressed VEGF [7, 18]: 37.4 ± 4%
- PHF cells expressing MMP-3 [8]: 43.3 ± 2.7%
- PHF cells expressing MMP-7 [8]: 54.3 ± 4.8%
- PHF cells expressing MMP-9 [8]: 51.4 ± 2.4%
- PHF cells expressing MMP-11 [8]: 28.5 ± 3.8%
- PHF cells expressing MMP-13 [8]: 46 ± 2.5%
- PHF cells expressing MMP-14 [8]: 49 ± 3.5%
- PHF cells expressing SPARC [8]: 48.1 ± 3.2%
- PHF cells expressing TGF-α [8]: 41.4 ± 2.1%
- PHF cells expressing TGF-β1 [8]: 34.5 ± 3.1%
- PHF cells expressing TGF-β2 [8]: 42.5 ± 2.1%
- PHF cells expressing TGF-β3 [8]: 4.11 ± 3.6%
- cells expressing MMP-3 [9]: 44.5 ± 4.7%
- cells expressing MMP-7 [9]: 55.5 ± 3.8%
- cells expressing MMP-9 [9]: 53.3 ± 2.4%
- cells expressing MMP-11 [9]: 24.4 ± 3.8%
- cells expressing MMP-13 [9]: 46.1 ± 3.5%
- cells expressing MMP-14 [9]: 46.2 ± 3.5%
- cells expressing SPARC [9]: 44.5 ± 1.4%
- cells expressing TGF-α [9]: 42.4 ± 3.2%
- cells expressing TGF-β1 [9]: 42.5 ± 2.1%
- cells expressing TGF-β2 [9]: 44.5 ± 1.9%
- cells expressing TGF-β3 [9]: 43.5 ± 2.6%
- cells expressing MMP-3 [10]: 53.4 ± 5.7%
- cells expressing MMP-7 [10]: 59.1 ± 4.8%
- cells expressing MMP-9 [10]: 59.3 ± 3.4%
- cells expressing MMP-11 [10]: 47.4 ± 4.8%
- cells expressing MMP-13 [10]: 49.5 ± 6.5%
- cells expressing MMP-14 [10]: 53.9 ± 5.5%
- cells expressing SPARC [10]: 56 ± 6.2%
- cells expressing TGF-α [10]: 41.4 ± 3.1%
- cells expressing TGF-β1 [10]: 42.5 ± 4.2%
- cells expressing TGF-β2 [10]: 50.5 ± 1.1%
- cells expressing TGF-β3 [10]: 51.4 ± 5.5%
- PHF cells expressing MMP-3 [11]: 44.4 ± 1.5%
- PHF cells expressing MMP-7 [11]: 55.1 ± 2.6%
- PHF cells expressing MMP-9 [11]: 56.6 ± 1.7%
- PHF cells expressing MMP-11 [11]: 22.4 ± 2.6%
- PHF cells expressing MMP-13 [11]: 55 ± 2.5%
- PHF cells expressing MMP-14 [11]: 46.2 ± 2.5%
- PHF cells expressing SPARC [11]: 46 ± 2.2%
- PHF cells expressing TGF-α [11]: 37.2 ± 2.1%
- PHF cells expressing TGF-β1 [11]: 35.5 ± 2.1%
- PHF cells expressing TGF-β2 [11]: 45.4 ± 1.2%
- PHF cells expressing TGF-β3 [11]: 42 ± 1.6%
